The source of these data is patent US10376481B2, “Compounds and methods for inhibiting NHE-mediated antiport in the treatment of disorders associated with fluid retention or salt overload and gastrointestinal tract disorders” (ARDELYX, INC, priority 2012, dated 2019).

Where only a bound is given, the exact number is not on record here.

In assay [1] the test system is absorption of sodium from the intestinal lumen. In words: Inhibition of intestinal sodium absorption: rat urinary sodium and fecal form 16 h post-dose. Format: in vivo, Sprague-Dawley rats. The settings on record: for FFS (fecal form score): 16 h post-dose, scale 1-5, group average; for response vs control in vivo at 10 mg/kg / response vs control in vivo at 3 mg/kg: urine 16 h post-dose, read-out: uNa Result, uNa (% of vehicle). As for the experimental part: Urinary sodium concentration and fecal form were measured to assess the ability of selected example compounds to inhibit the absorption of sodium from the intestinal lumen. Eight-week old Sprague-Dawley rats were purchased from Charles River Laboratories (Hollister, Calif.), were housed 2 per cage, and acclimated for at least 3 days before study initiation. Animals were fed Harlan Teklad Global 2018 rodent chow (Indianapolis, Ind.) and water ad libitum throughout the study and maintained in a standard light/dark cycle of 6 AM to 6 PM. On the day of the study, between 4 PM and 5 PM, a group of rats (n=6) were dosed via oral gavage with test compound or vehicle (water) at a volume of 10 mL/kg. After dose administration animals were placed in individual metabolic cages where they were also fed the same chow in meal form and watered ad libitum. At 16 h post-dose, the urine samples were collected and fecal form was assessed by two independent observations. Fecal forms were scored according to a common scale associated with increasing fecal water to the wettest observation in the cage's collection funnel (1, normal pellet; 2, pellet adhering to sides of collection funnel due to moisture; 3, loss of normal pellet shape; 4, complete loss of shape with a blotting pattern; 5, liquid fecal streams evident). A rat's fecal form score (FFS) was determined by averaging both observational scores for all rats within a group (n=6). The vehicle group average was 1. For urine samples, the volumes were determined gravimetrically and centrifuged at 3,600×g. The supernatants were diluted 100-fold in deionized Milli-Q water then filtered through a 0.2 μm GHP Pall AcroPrep filter plate (Pall Life Sciences, Ann Arbor, Mich.) prior to analysis by ion chromatography. Ten microliters of each filtered extract was injected onto a Dionex ICS-3000 ion chromatograph system (Dionex, Sunnyvale, Calif.). Cations were separated by an isocratic method using 25 mM methanesulfonic acid as the eluent on an IonPac CS12A 2 mm i.d.×250 mm, 8 μm particle size cation exchange column (Dionex). Sodium was quantified using standards prepared from a cation standard mix containing Li^+, Na^+, NH4^+, K^+, Mg^2+, and Ca^2+ (Dionex). The mean mass of sodium urinated for every group in the 16 h period was determined with the vehicle group usually urinating approximately 21 mg sodium. The urine Na (uNa) for rats in the test groups were expressed as a percentage of the vehicle mean and the means were compared to that of the vehicle group by utilizing a one-way analysis of variance coupled with a Dunnett's post hoc test.

In another assay the target is T1, human NHE3 (Homo sapiens, UniProt P48764).
T1 sequence (P48764 26-834): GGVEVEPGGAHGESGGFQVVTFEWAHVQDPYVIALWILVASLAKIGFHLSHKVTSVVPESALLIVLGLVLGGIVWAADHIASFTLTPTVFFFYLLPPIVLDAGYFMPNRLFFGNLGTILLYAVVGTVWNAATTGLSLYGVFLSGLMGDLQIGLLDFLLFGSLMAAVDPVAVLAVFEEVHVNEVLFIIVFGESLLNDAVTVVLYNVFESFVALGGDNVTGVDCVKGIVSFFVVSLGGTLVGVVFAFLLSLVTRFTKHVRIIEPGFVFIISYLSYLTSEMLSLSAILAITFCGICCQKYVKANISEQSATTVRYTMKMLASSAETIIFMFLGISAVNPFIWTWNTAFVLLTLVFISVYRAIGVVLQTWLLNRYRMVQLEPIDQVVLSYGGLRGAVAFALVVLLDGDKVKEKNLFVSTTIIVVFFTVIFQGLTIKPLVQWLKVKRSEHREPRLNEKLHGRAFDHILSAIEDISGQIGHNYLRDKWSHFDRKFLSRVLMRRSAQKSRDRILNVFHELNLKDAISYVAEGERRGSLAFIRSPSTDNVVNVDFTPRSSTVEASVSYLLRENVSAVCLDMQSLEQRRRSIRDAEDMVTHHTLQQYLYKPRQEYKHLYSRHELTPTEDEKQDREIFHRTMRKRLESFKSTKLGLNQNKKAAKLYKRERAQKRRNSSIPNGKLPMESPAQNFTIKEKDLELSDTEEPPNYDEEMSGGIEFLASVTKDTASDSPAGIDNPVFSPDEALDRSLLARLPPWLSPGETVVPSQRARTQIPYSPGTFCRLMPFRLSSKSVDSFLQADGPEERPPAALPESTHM
In words: Cell-based assay of NHE-3 activity (human NHE3 inhibition assay). Also on record: expressed in transfected cells; host or cells: Opossum kidney (OK) cells (ATCC), electroporated. The settings on record: OK cells with human NHE-3 gene, BCECF pH recovery, 0-30 μM test compound; read-out: Human NHE3 pIC50 (converted). On the procedure: Rat or human NHE-3-mediated Na^+-dependent H^+ antiport was measured using a modification of the pH sensitive dye method originally reported by Paradiso (Proc. Natl. Acad. Sci. USA. (1984) 81(23): 7436-7440). Opossum kidney (OK) cells were obtained from the ATCC and propagated per their instructions. The rat NHE-3 gene (GenBank M85300) or the human NHE-3 gene (GenBank NM_004174.1) was introduced into OK cells via electroporation, and cells were seeded into 96 well plates and grown overnight. Medium was aspirated from the wells, cells were washed twice with NaCl-HEPES buffer (100 mM NaCl, 50 mM HEPES, 10 mM glucose, 5 mM KCl, 2 mM CaCl2, 1 mM MgCl2, pH 7.4), then incubated for 30 min at room temperature with NH4Cl-HEPES buffer (20 mM NH4Cl, 80 mM NaCl, 50 mM HEPES, 5 mM KCl, 2 mM CaCl2, 1 mM MgCl2, pH 7.4) containing 5 μM bis(acetoxymethyl) 3,3′-(3′,6′-bis(acetoxymethoxy)-5-((acetoxymethoxy)carbonyl)-3-oxo-3H-spiro[isobenzofuran-1,9′-xanthene]-2′,7′-diyl)dipropanoate (BCECF-AM). Cells were washed twice with Ammonium free, Na^+-free HEPES (100 mM choline, 50 mM HEPES, 10 mM glucose, 5 mM KCl, 2 mM CaCl2, 1 mM MgCl2, pH 7.4) and incubated in the same buffer for 10 minutes at room temperature to lower intracellular pH. […] Initial rates were plotted as the average 2 or more replicates, and pIC50 values were estimated using GraphPad Prism.

In the case of `O=C(NCCOCCOCCNS(=O)(=O)c1ccc(O[C@H]2c3ccccc3C[C@@H]2N2CCCCC2)cc1)c1ccc(C(=O)NCCOCCOCCNS(=O)(=O)c2ccc(O[C@H]3c4ccccc4C[C@@H]3N3CCCCC3)cc2)cc1` [Example 6, N1,N4-bis(2-(2-(2-(4-((1S,2S)-2-(piperidin-1-yl)-2,3-dihydro-1H-inden-1-yloxy)phenylsulfonamido)ethoxy)ethoxy)ethyl)terephthalamide], in assay [1] (oral gavage 10 mg/kg), the “FFS (fecal form score)” value is given as 1 and the response vs control in vivo at 10 mg/kg fell in the range of 35 to 75%. Further, at human NHE3, the IC50 was under 100 nM.
With `O=C(NCCOCCOCCOCCNS(=O)(=O)c1ccc(O[C@H]2c3ccccc3C[C@@H]2N2CCCCC2)cc1)c1ccc(C(=O)NCCOCCOCCOCCNS(=O)(=O)c2ccc(O[C@H]3c4ccccc4C[C@@H]3N3CCCCC3)cc2)cc1` [Example 34], in assay [1] (oral gavage 10 mg/kg), the response vs control in vivo at 10 mg/kg is over 75%. The IC50 on human NHE3 was under 100 nM.
As to `O=C(NCCCCNC(=O)NCCOCCOCCNS(=O)(=O)c1ccc(O[C@H]2c3ccccc3C[C@@H]2N2CCCC2)cc1)NCCOCCOCCNS(=O)(=O)c1ccc(O[C@H]2c3ccccc3C[C@@H]2N2CCCC2)cc1` [Example 19], the response vs control in vivo at 10 mg/kg in assay [1] (oral gavage 10 mg/kg) was 35 to 75%. On human NHE3, the IC50 was over 10000 nM.
For the molecule `CC(C)(C(=O)NCCOCCOCCOCCNS(=O)(=O)c1ccc(O[C@H]2c3ccccc3C[C@@H]2N2CCCCC2)cc1)C(=O)NCCOCCOCCOCCNS(=O)(=O)c1ccc(O[C@H]2c3ccccc3C[C@@H]2N2CCCCC2)cc1` [Example 7, 2,2-dimethyl-N1,N3-bis(2-(2-(2-(2-(4-((1S,2S)-2-(piperidin-1-yl)-2,3-dihydro-1H-inden-1-yloxy)phenylsulfonamido)ethoxy)ethoxy)ethoxy)ethyl)malonamide], in assay [1] (oral gavage 10 mg/kg), the response vs control in vivo at 10 mg/kg lay within 35 to 75%. Besides, the IC50 at human NHE3 was under 100 nM.
As for `CN(C)[C@H]1Cc2c(Cl)cc(Cl)cc2[C@@H]1Oc1ccc(S(=O)(=O)NCCOCCOCCNC(=O)CCC(C)(CCC(=O)NCCOCCOCCNS(=O)(=O)c2ccc(O[C@H]3c4cc(Cl)cc(Cl)c4C[C@@H]3N(C)C)cc2)NC(=O)CCC(=O)O)cc1` [Example 12, 1-(4-((1S,2S)-4,6-dichloro-2-(dimethylamino)-2,3-dihydro-1H-inden-1-yloxy)phenylsulfonamido)-13-(3-(2-(2-(2-(4-((1S,2S)-4,6-dichloro-2-(dimethylamino)-2,3-dihydro-1H-inden-1-yloxy)phenylsulfonamido)ethoxy)ethoxy)ethylamino)-3-oxopropyl)-13-methyl-10,15-dioxo-3,6-dioxa-9,14-diazaoctadecan-18-oic Acid], the response vs control in vivo at 3 mg/kg in assay [1] (oral gavage 3 mg/kg) is 35 to 75%. Besides, the IC50 at human NHE3 is under 100 nM.
As to `O=C(NCCOCCOCCOCCNS(=O)(=O)c1ccc(O[C@H]2c3ccccc3C[C@@H]2N2CCCCC2)cc1)c1cccc(C(=O)NCCOCCOCCOCCNS(=O)(=O)c2ccc(O[C@H]3c4ccccc4C[C@@H]3N3CCCCC3)cc2)c1` [Example 35], the response vs control in vivo at 10 mg/kg in assay [1] (oral gavage 10 mg/kg) was over 75%. Further, the IC50 on human NHE3 was under 100 nM.
Regarding `CN(C)[C@H]1Cc2c(Cl)cc(Cl)cc2[C@@H]1Oc1ccc(S(=O)(=O)N(C)CCOCCOCCNC(=O)NCCCCNC(=O)NCCOCCOCCN(C)S(=O)(=O)c2ccc(O[C@H]3c4cc(Cl)cc(Cl)c4C[C@@H]3N(C)C)cc2)cc1` [Example 26], in assay [1] (oral gavage 10 mg/kg), the “FFS (fecal form score)” value came to 1 and the response vs control in vivo at 10 mg/kg lay within 35 to 75%. The IC50 on human NHE3 was under 100 nM.
As to `O=C(NCCOCCOCCNS(=O)(=O)c1ccc(O[C@H]2c3ccccc3C[C@@H]2N2CCCCC2)cc1)[C@H](O)[C@@H](O)C(=O)NCCOCCOCCNS(=O)(=O)c1ccc(O[C@H]2c3ccccc3C[C@@H]2N2CCCCC2)cc1` [Example 32], the response vs control in vivo at 10 mg/kg in assay [1] (oral gavage 10 mg/kg) is over 75%. The IC50 on human NHE3 is under 100 nM.
As to `O=C(NCCOCCOCCNS(=O)(=O)c1ccc(O[C@H]2c3ccccc3C[C@@H]2N2CCCCC2)cc1)c1cccc(C(=O)NCCOCCOCCNS(=O)(=O)c2ccc(O[C@H]3c4ccccc4C[C@@H]3N3CCCCC3)cc2)c1` [Example 33], the response vs control in vivo at 10 mg/kg in assay [1] (oral gavage 10 mg/kg) was in the range of 35 to 75%. Besides, the IC50 on human NHE3 was under 100 nM.
As for `CN(C)[C@H]1Cc2c(Cl)cc(Cl)cc2[C@@H]1Oc1ccc(S(=O)(=O)NCCOCCOCCNC(=O)Nc2ccc(NC(=O)NCCOCCOCCNS(=O)(=O)c3ccc(O[C@H]4c5cc(Cl)cc(Cl)c5C[C@@H]4N(C)C)cc3)cc2)cc1` [Example 27], in assay [1] (oral gavage 10 mg/kg), the “FFS (fecal form score)” value is listed as 1 and the response vs control in vivo at 10 mg/kg is under 35%. Besides, at human NHE3, the IC50 is under 100 nM.
`CN(C)[C@H]1Cc2c(Cl)cc(Cl)cc2[C@@H]1Oc1ccc(S(=O)(=O)NCCOCCOCCNC(=O)CCC(=O)NCCOCCOCCNS(=O)(=O)c2ccc(O[C@H]3c4cc(Cl)cc(Cl)c4C[C@@H]3N(C)C)cc2)cc1` [Example 8, N1,N4-bis(2-(2-(2-(4-((1S,2S)-4,6-dichloro-2-(dimethylamino)-2,3-dihydro-1H-inden-1-yloxy)phenylsulfonamido)ethoxy)ethoxy)ethyl)succinamide]: the response vs control in vivo at 3 mg/kg in assay [1] (oral gavage 3 mg/kg) is 35 to 75%. Further, the IC50 on human NHE3 is under 100 nM.
With `O=C(NCCCCNC(=O)NCCOCCOCCNC(=O)Nc1ccc(O[C@H]2c3ccccc3C[C@@H]2N2CCCCC2)cc1)NCCOCCOCCNC(=O)Nc1ccc(O[C@H]2c3ccccc3C[C@@H]2N2CCCCC2)cc1` [Example 38], in assay [1] (oral gavage 3 mg/kg), the “FFS (fecal form score)” value stood at 1 and the response vs control in vivo at 3 mg/kg is over 75%. The IC50 on human NHE3 is under 100 nM.
With `CC(N)(CCC(=O)NCCOCCOCCNS(=O)(=O)c1ccc(O[C@H]2c3ccccc3C[C@@H]2N2CCCCC2)cc1)CCC(=O)NCCOCCOCCNS(=O)(=O)c1ccc(O[C@H]2c3ccccc3C[C@@H]2N2CCCCC2)cc1` [Example 37], in assay [1] (oral gavage 10 mg/kg), the “FFS (fecal form score)” value came to 1 and the response vs control in vivo at 10 mg/kg fell in the range of 35 to 75%. The IC50 at human NHE3 was under 100 nM.
